The values that follow are results of earlier work, collected in article PMC7948455, “Novel drug discovery platform for spinocerebellar ataxia, using fluorescence technology targeting β-III-spectrin” (The Journal of Biological Chemistry, 2020).

The subject of the data set is mammalian cells. The conditions noted are these: 10 μM ref 36, 37, 38; cited from earlier work.

Regarding `CCCCCCCC/C=C\CCCCCCCC(=O)NCc1ccc(O)c(OC)c1` [olvanil], the “Reduction of cell viability” value is reported as under 10%.
